What was measured:
Conditions in all cases: incubation time: 72 h
MDA-MB-468 [1] = assay: drug sensitivity score (DSS), CellTiter-Glo (DSS (AUC-based score)); higher = stronger drug effect (viability inhibition or cytotoxicity); extreme values may be limits of the assay
Summary of the method: (§1)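 Breast cancer cells were seeded into 384-well plates containing compound at 5 concentrations in 10-fold steps over a compound-specific 10,000-fold range and incubated 72 h. After CellTox Green and CellTiter-Glo readings, each plate was normalised to 0.1 % DMSO and a positive kill control. The drug sensitivity score rests on the area under the fitted dose-response curve.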

BT-474 [2] = assay: as above
Summary of the method: as §1

HCC1599 = assay: as above
Summary of the method: as §1

HCC1143 [3] = assay: as above
Summary of the method: as §1

MDA-MB-436 = assay: as above
Summary of the method: as §1

CAL-51 [4] = assay: as above
Summary of the method: as §1

MCF-10A = assay: as above
Summary of the method: as §1

Hs578T = assay: as above
Summary of the method: as §1

BT-549 = assay: as above
Summary of the method: as §1

CAL-85-1 = assay: as above
Summary of the method: as §1

MFM-223 [5] = assay: as above
Summary of the method: as §1

MDA-MB-453 = assay: as above
Summary of the method: as §1

HCC1937 [6] = assay: as above
Summary of the method: as §1

CAL-148 = assay: as above
Summary of the method: as §1

SK-BR-3 [7] = assay: as above
Summary of the method: as §1

MDA-MB-468 [8] = assay: normalised viability (% of control), CellTiter-Blue; higher = more viable cells (about 100 = DMSO control)
Summary of the method: (§2)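 Breast cancer cell lines in 20 µl suspension were seeded onto 384-well plates pre-loaded with compound dissolved in 5 µl medium, then incubated 72 h. CellTiter-Blue reagent (2.5 µl) was added for 2 h at 37 °C and fluorescence read at 560/590 nm. Each plate was normalised to vehicle (100) and a positive kill control (0), with Z'-factor quality control. The value is normalised viability at one listed concentration of the series.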

BT-474 [9] = assay: as above
Summary of the method: as §2

HCC1143 [10] = assay: as above
Summary of the method: as §2

CAL-51 [11] = assay: as above
Summary of the method: as §2

CAL-120 = assay: as above
Summary of the method: as §2

MFM-223 [12] = assay: as above
Summary of the method: as §2

MDA-MB-231 = assay: as above
Summary of the method: as §2

HDQ-P1 = assay: as above
Summary of the method: as §2

HCC1937 [13] = assay: as above
Summary of the method: as §2

SK-BR-3 [14] = assay: as above
Summary of the method: as §2

CN(N=O)C(=O)N[C@@H](C=O)[C@@H](O)[C@H](O)[C@H](O)CO [Streptozocin]
Conditions	drug sensitivity score
BT-474 [2]	0
BT-549	0
CAL-51 [4]	0
CAL-85-1	0
CAL-148	0
HCC1143 [3]	0
HCC1599	0
HCC1937 [6]	0
Hs578T	0
MCF-10A	0
MDA-MB-436	0
MDA-MB-453	0
MDA-MB-468 [1]	0
MFM-223 [5]	0
SK-BR-3 [7]	0

normalised viability [%]
Conditions	BT-474 [9]	CAL-51 [11]	CAL-120	HCC1143 [10]	HCC1937 [13]	HDQ-P1	MDA-MB-231	MDA-MB-468 [8]	MFM-223 [12]	SK-BR-3 [14]
3 nM	–	115	–	–	–	103	–	–	–	–
10 nM	125	–	106	87.5	87.4	–	101	107	93.1	101
30 nM	–	112	–	–	–	109	–	–	–	–
100 nM	–	107	–	–	–	111	–	–	–	–
1000 nM	98.6	–	101	97.4	63.3	–	138	105	93	110
10000 nM	135	–	113	92.5	75.9	–	110	113	86.8	126

O=C1CCC(N2C(=O)c3ccccc3C2=O)C(=O)N1 (stereo not given) [Thalidomide]
Conditions	drug sensitivity score
BT-474 [2]	0
BT-549	0
CAL-51 [4]	0
CAL-85-1	0
CAL-148	0
HCC1143 [3]	0
HCC1599	0
HCC1937 [6]	0
Hs578T	0
MCF-10A	0
MDA-MB-436	0
MDA-MB-453	0
MDA-MB-468 [1]	0
MFM-223 [5]	0
SK-BR-3 [7]	0

normalised viability [%]
Conditions	BT-474 [9]	CAL-51 [11]	CAL-120	HCC1143 [10]	HCC1937 [13]	HDQ-P1	MDA-MB-231	MDA-MB-468 [8]	MFM-223 [12]	SK-BR-3 [14]
3 nM	–	90.8	–	–	–	107	–	–	–	–
10 nM	110	–	111	109	85.8	–	97.2	97.9	103	97.9
30 nM	–	90.7	–	–	–	101	–	–	–	–
100 nM	–	91.3	–	–	–	103	–	–	–	–
1000 nM	110	–	106	102	73.4	–	109	101	96.6	112
10000 nM	108	–	96.8	107	77.9	–	124	105	91.4	109

CN[C@@H]1C[C@H]2O[C@@](C)([C@@H]1OC)n1c3ccccc3c3c4c(c5c6ccccc6n2c5c31)C(=O)N[C@H]4O [UCN-01]
Conditions	drug sensitivity score
BT-474 [2]	26
BT-549	21.6
CAL-51 [4]	23.9
CAL-85-1	22.6
CAL-148	8.79
HCC1143 [3]	19.7
HCC1599	27.9
HCC1937 [6]	18.8
Hs578T	27.5
MCF-10A	27.8
MDA-MB-436	20.9
MDA-MB-453	17.3
MDA-MB-468 [1]	23.7
MFM-223 [5]	16.6
SK-BR-3 [7]	24

normalised viability [%]
Conditions	BT-474 [9]	CAL-51 [11]	CAL-120	HCC1143 [10]	HCC1937 [13]	HDQ-P1	MDA-MB-231	MDA-MB-468 [8]	MFM-223 [12]	SK-BR-3 [14]
3 nM	–	99.7	–	–	–	82.2	–	–	–	–
10 nM	108	–	72.8	77.7	71.7	–	93.7	126	103	101
30 nM	–	87.2	–	–	–	66.8	–	–	–	–
100 nM	–	62.6	–	–	–	39.6	–	–	–	–
1000 nM	44.2	–	17.7	20.6	25.6	–	17.2	7.27	42.1	16.5
10000 nM	2.62	–	9.93	20.4	7.84	–	0.84	6.64	13.5	3.68

Clc1ccc(Nc2nnc(Cc3ccncc3)c3ccccc23)cc1 [Vatalanib]
Conditions	drug sensitivity score
BT-474 [2]	0
BT-549	0
CAL-51 [4]	0
CAL-85-1	0
CAL-148	0
HCC1143 [3]	0
HCC1599	0
HCC1937 [6]	0
Hs578T	0
MCF-10A	0
MDA-MB-436	0
MDA-MB-453	0
MDA-MB-468 [1]	0
MFM-223 [5]	0
SK-BR-3 [7]	0

normalised viability [%]
Conditions	BT-474 [9]	CAL-51 [11]	CAL-120	HCC1143 [10]	HCC1937 [13]	HDQ-P1	MDA-MB-231	MDA-MB-468 [8]	MFM-223 [12]	SK-BR-3 [14]
3 nM	–	104	–	–	–	105	–	–	–	–
10 nM	95.8	–	82.2	80.5	75	–	90.1	98.6	99.5	95.2
30 nM	–	98.7	–	–	–	102	–	–	–	–
100 nM	–	104	–	–	–	108	–	–	–	–
1000 nM	96	–	89.7	87.2	95.7	–	90.8	112	99.8	101
10000 nM	73.1	–	82.6	79.6	91.9	–	85.1	78.2	111	86.9

CCC1=C[C@@H]2CN(C1)Cc1c([nH]c3ccccc13)[C@@](C(=O)OC)(c1cc3c(cc1OC)N(C)[C@H]1[C@@](O)(C(=O)OC)[C@H](OC(C)=O)[C@]4(CC)C=CCN5CC[C@]31[C@@H]54)C2 [Vinorelbine]
Conditions	drug sensitivity score
BT-474 [2]	12.3
BT-549	20.7
CAL-51 [4]	17.1
CAL-85-1	19.8
CAL-148	17.1
HCC1143 [3]	15.6
HCC1599	18.8
HCC1937 [6]	8.42
Hs578T	19.8
MCF-10A	10.2
MDA-MB-436	21.9
MDA-MB-453	15.6
MDA-MB-468 [1]	24.8
MFM-223 [5]	16
SK-BR-3 [7]	37.5

normalised viability [%]
Conditions	BT-474 [9]	CAL-51 [11]	CAL-120	HCC1143 [10]	HCC1937 [13]	HDQ-P1	MDA-MB-231	MDA-MB-468 [8]	MFM-223 [12]	SK-BR-3 [14]
3 nM	–	110	–	–	–	95.3	–	–	–	–
10 nM	108	–	84.1	93.9	83.2	–	109	104	95.5	99.4
30 nM	–	91.7	–	–	–	81.2	–	–	–	–
100 nM	–	58.1	–	–	–	65	–	–	–	–
1000 nM	44.4	–	24.3	45.8	14.7	–	16.7	53.6	44	17.7
10000 nM	58.1	–	25.4	38.7	19.5	–	12.7	33.8	29.1	18.3

Oc1nc(-c2ccc(C(F)(F)F)cc2)nc2c1CSCC2 [XAV-939]
Conditions	drug sensitivity score
BT-474 [2]	3.54
BT-549	0
CAL-51 [4]	8.6
CAL-85-1	0
CAL-148	0
HCC1143 [3]	0
HCC1599	0
HCC1937 [6]	0
Hs578T	0
MCF-10A	0
MDA-MB-436	0
MDA-MB-453	0.956
MDA-MB-468 [1]	0.9
MFM-223 [5]	0
SK-BR-3 [7]	0

normalised viability [%]
Conditions	BT-474 [9]	CAL-51 [11]	CAL-120	HCC1143 [10]	HCC1937 [13]	HDQ-P1	MDA-MB-231	MDA-MB-468 [8]	MFM-223 [12]	SK-BR-3 [14]
3 nM	–	102	–	–	–	113	–	–	–	–
10 nM	107	–	90.6	80.4	113	–	89.5	111	110	99.5
30 nM	–	101	–	–	–	104	–	–	–	–
100 nM	–	101	–	–	–	98.6	–	–	–	–
1000 nM	100	–	92.8	81.9	89.3	–	87.6	105	100	104
10000 nM	103	–	105	80.9	122	–	71.4	98.4	86.9	115

Source: the supplement of paper PMC4862054
